# Assay results from publication PMC6109063 (Nature Communications, 2018).
# Target: T1, FgGcn5 (Fusarium graminearum, UniProt I1R9W6)
# T1 construct: gene FGRAMPH1_01T00753
# Conditions: inhibitor; 30 ug/ml PCN; recombinant GST-H3 substrate, 5 mM acetyl-CoA, Tris-HCl pH 8.0, 37 C, 45 min
# T1 sequence (I1R9W6 1-396): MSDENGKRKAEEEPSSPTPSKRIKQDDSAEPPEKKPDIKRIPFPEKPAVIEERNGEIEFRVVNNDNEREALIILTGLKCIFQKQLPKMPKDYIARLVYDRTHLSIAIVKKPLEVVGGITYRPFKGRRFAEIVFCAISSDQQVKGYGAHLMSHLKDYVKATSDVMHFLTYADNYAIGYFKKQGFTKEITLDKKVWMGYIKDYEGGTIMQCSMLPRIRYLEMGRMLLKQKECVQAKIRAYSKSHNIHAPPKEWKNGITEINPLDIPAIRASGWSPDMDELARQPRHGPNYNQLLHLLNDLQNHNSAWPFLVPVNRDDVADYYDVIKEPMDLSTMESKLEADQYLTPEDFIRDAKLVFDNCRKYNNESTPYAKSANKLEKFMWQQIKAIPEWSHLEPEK
structure (smiles),measurement,value
"NC(=O)c1cccc2nc3ccccc3nc12 [PCN, phenazine-1-carboxamide]","in vitro histone H3 acetylation assay, immunoblot (H3 pan-acetyl and H3K18ac)",demonstrating that PCN was able to inhibit the HAT activity of FgGcn5 in vitro
